Where a SMILES comes first, the peptide text is derived from it. Where no end group is shown, it is not given here.
Key:
GST = GST (Schistosoma japonicum, UniProt P08515); assay: Surface plasmon resonance control with GST as analyte; type: binding; conditions: SPR, GST as the analyte
Experimental: Kinetics of the SNCG-ANK interaction were determined. […] Sensograms were deconvoluted globally, using a simultaneous fit for both association (ka, M^−1s^−1) and dissociation (kd, s^−1).
The binding interaction between the ANK peptide and GST-SNCG was examined in real time using a BIACORE 3000 biosensor system (Biacore Inc., NJ). Because of the relatively large amount required in this experiment, GST-SNCG, which expresses at least 2 times better than SNCG, was used. […] The changes in the refractive index at the sensor chip surface with respect to time are scaled in resonance units (RU). For proteins, every 1000 RU corresponds to a surface mass change of ˜1 ng/mm^2. All experiments were performed at 25° C. using research grade carboxymethylated dextran matrix (CM5) sensor chips (Biacore Inc.). […] Prior to all analyses the GST-SNCG and ANK peptide preparations were dialyzed against the running buffer to minimize bulk effects. Blank analyte injections (running buffer only) were subtracted from the specific binding isotherms to further minimize instrument noise.

SNCG = SNCG (Homo sapiens, UniProt O76070); assay: ANS fluorescence of the SNCG-ANK peptide complex; type: binding; design: The SNCG coding region was amplified from the human cDNA clone; GST (N, cleaved yes); made in house; host or cells: Escherichia coli BL21 (DE3); conditions: SNCG 30 μM, ANK peptide 240 μM, 0.02 mg/mL ANS; versus peptide only
Source text: ANS fluorescence was also utilized to study the conformational properties of SNCG and the SNCG-ANK peptide interaction (See FIG. 2C). Changes in ANS fluorescence intensity are frequently used to monitor formation of partially folded intermediates during protein unfolding and refolding (Semisotnov et al. Biopolymers 1991 31:119-128), as well as to analyze the hydrophobic surfaces of proteins (Stryer, L. J. Mol. Biol. 1965 13:482-495). The interaction of ANS with solvent-exposed hydrophobic clusters is accompanied by a considerable increase in the dye fluorescence intensity and a pronounced blue shift of the fluorescence maximum. […] The addition of ANK peptide induced significant changes in ANS fluorescence properties, including a dramatic increase in the fluorescence intensity and a blue shift in λmax. […] Importantly, formation of the SNCG-ANK complex is accompanied by an approximate 20% decrease in ANS fluorescence intensity of only peptide which is affected by the presence of SNCG, confirming the interaction between SNCG and ANK peptide.

GST-SNCG = target: T1, GST-SNCG (Homo sapiens, UniProt O76070); assay: GST pull-down of EGFP-ANK with GST-SNCG; type: binding; conditions: FIG. 5D, GST as control
T1 construct: The SNCG coding region was amplified from the human cDNA clone; made in house; host or cells: Escherichia coli BL21 (DE3)
Source text: FIGS. 5A through 5D show co-localization, co-immunoprecipitation (co-IP) and GST pull down experiments, using an enhance green fluorescent protein (EGFP)-ANK fusion protein, which confirm that SNCG associates with the ANK peptide in vivo. FIG. 5A is a western blot depicting detection of EGFP-ANK expression in COS7 cells. Lanes 2 and 3 were samples transfected with different clones, cl-4 and cl-8, respectively, of pEGFP-ANK plasmid. In FIG. 5B, MCF7-SNCG cells were transfected with pEGFP-ANK, fixed on a cover slip, permeabilized and probed with anti-SNCG and anti-GFP antibodies to observe co-localization. Fluorescent cells were visualized using an ×100 objective (oil) on an inverted confocal microscope (Leica). FIGS. 5C and 5D are western blots showing association of SNCG and ANK peptide as evidenced by co-IP of SNCG with EGFP-ANK in MCF7-SNCG and MCF7-neo cells. In these experiments, MCF7-SNCG and MCF7-neo cells were transfected with pEGFP-ANK or pEGFP plasmids. […]
GST-SNCG (20 μg) protein or GST alone was added to a pre-equilibrated slurry of glutathione-sepharose 4B and incubated for 60 minutes. […] After extensive washes, the beads were collected, boiled in sample buffer, separated on 12% SDS gel and analyzed by western blotting. […]

SNCG-BubR1 interaction = target: T2, SNCG-BubR1 interaction (Homo sapiens, UniProt O76070); assay: Co-immunoprecipitation of SNCG and myc-BubR1 with or without EGFP-ANK in COS7 cells; type: cell-based; conditions: COS7 cells expressing BubR1, SNCG and EGFP-ANK
T2 construct: expressed in transfected cells; host or cells: COS7
T2 sequence (O76070 whole entry): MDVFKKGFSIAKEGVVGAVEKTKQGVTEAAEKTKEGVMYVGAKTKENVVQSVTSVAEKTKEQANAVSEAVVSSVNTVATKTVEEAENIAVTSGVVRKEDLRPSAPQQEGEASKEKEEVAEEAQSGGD

GST, sequence (P08515 whole entry): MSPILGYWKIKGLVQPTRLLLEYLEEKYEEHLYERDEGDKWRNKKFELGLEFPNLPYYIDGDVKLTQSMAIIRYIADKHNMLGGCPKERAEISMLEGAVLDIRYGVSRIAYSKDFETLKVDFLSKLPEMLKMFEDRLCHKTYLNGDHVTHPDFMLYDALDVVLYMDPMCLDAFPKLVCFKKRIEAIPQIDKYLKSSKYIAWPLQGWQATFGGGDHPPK
T1 sequence (O76070 whole entry): as the sequence (O76070 whole entry) above
SNCG, sequence (O76070 whole entry): as above

myc-BubR1 signal in anti-SNCG IP complex (SNCG-BubR1 interaction) | Compound | binding of GST analyte to immobilized ANK peptide (GST) | decrease in ANS fluorescence intensity on formation of the SNCG-ANK complex (SNCG) [%] | pull down by GST-SNCG (GST-SNCG)
– | CC[C@H](C)[C@H](NC(=O)[C@H](CS)NC(=O)CNC(=O)[C@H](CC(C)C)NC(=O)[C@H](Cc1c[nH]cn1)NC(=O)CNC(=O)[C@H](Cc1c[nH]cn1)NC(=O)[C@H](CCC(N)=O)NC(=O)[C@H](CO)NC(=O)[C@H](C)NC(=O)[C@@H](NC(=O)[C@H](Cc1c[nH]cn1)NC(=O)[C@H](CC(C)C)NC(=O)[C@H](C)NC(=O)[C@H](CO)NC(=O)[C@H](CC(N)=O)NC(=O)CNC(=O)[C@H](CCCCN)NC(C)=O)C(C)C)C(=O)N[C@@H](CCC(N)=O)C(=O)N[C@H](C(=O)N[C@@H](CC(C)C)C(=O)N[C@H](C(=O)N[C@@H](CCCNC(=N)N)C(=O)N[C@@H](Cc1ccc(O)cc1)C(=O)NCC(=O)N[C@@H](C)C(=O)N[C@@H](CC(N)=O)C(=O)N[C@H](C(=O)N[C@H](C(=O)N[C@@H](CCSC)C(=O)N[C@@H](CCC(N)=O)C(=O)N[C@@H](CC(N)=O)C(=O)N[C@@H](Cc1c[nH]cn1)C(=O)NCC(N)=O)[C@@H](C)O)C(C)C)C(C)C)[C@@H](C)O [ANK peptide] (Ac-KGNSALHVASQHGHLGCIQTLVRYGANVTMQNHG-NH2) | No binding | ~20 | –
not detected | EGFP-ANK: ANK peptide expressed as a fusion protein with its amino-terminal linked to EGFP protein, approximately 37 kDa ({EGFP}-KGNSALHVASQHGHLGCIQTLVRYGANVTMQNHG) | – | – | SNCG is capable of immunoprecipitating EGFP-ANK

Source: US7897568B2, “Compositions for treatment of cancer” (priority 2006, dated 2011)
